Five molecules from patent US8465983B1, “Detection and delivery systems utilizing supported lipid bilayers” (priority 2005, dated 2013) can be followed below.

Assay [1] can be described thus: Lipid bilayers on MS-PPE as barriers to superquenching by AQS, flow cytometry. As to conditions: 10 μM AQS. How it is done:
FIG. 15 graphically illustrates flow cytometric evaluations of different lipids that involved formation of supported lipid bilayers on MS-PPE for the purpose of forming a barrier to quenching by AQS. Lipids tested were 2 mM DPPC, 1 mM egg-PC, and 2 mM DMPG. Fluorescence was normalized to that of MS-PPE without lipids and in absence of AQS. −AQS and +AQS refer to absence and presence of 10 μM AQS. The errors bars represent SD of means of normalized histograms obtained for triplicates.
Small unilamellar vesicles (SUVs) were prepared using a 2 mM solution of DPPC, 1 mM egg-PC, or 2 mM DMPG in chloroform. The lipid was dried by nitrogen gas followed by vacuum. The dried lipid was resuspended in phosphate buffer saline (PBS), pH 7.4, and incubated at 37° C. for 10 min, then sonicated to optical clarity in a sonication bath (Branson Cleaning Equipment Co., Shelton, Conn.).
Lipid bilayers were assembled on microspheres as previously described (Buranda et al. Langmuir 19:1654-1663 (2003); Bayerl & Bloom, Biophys J 58:357-362 (1990)). […]
Bead suspensions of 2.5×10^5 PPE-coated microspheres in 200 μL PBS were analyzed using a FACScan flow cytometer (Becton-Dickinson, Sunnyvale, Calif.) with excitation at 488 nm. Fluorescence signals were acquired on the FL-1 channel (525 nm) using log amplification and analyzed with the CellQuest software.

Assay [2] relates to 80:20 (molar ratio) DMPG and DMPC bilayer on porous silica beads. The experiment in a line: Suspension study: melittin on DMPG/DMPC 80:20 bilayers on fluorescein-containing porous beads. Format: biochemical. As to conditions: 220 μM melittin (FIG. 6 legend prints 220 pM), 25° C. How it is done: (§1) Experimental procedures were similar to the TRITON X-100 detergent based analysis. For experiments with α-toxin, three different toxin concentrations: 15, 45 and 250 μg/mL were used at 37° C. and 25° C. Beads coated with EPC were used. In the experiments with melittin, 220 μM melittin was used with beads coated with either 100% EPC, 10:90 (molar ratio) mixture of DMPG and EPC or an 80:20 mixture of DMPG and DMPC. All melittin experiments were conducted at 25° C.
In view of the results shown in FIG. 5, the effects of melittin on other mixtures of lipids were examined. […] A 80:20 mixture (molar ratio) of DMPG and DMPC was used to form the lipid bilayers used in this experiment. The increase in fluorescence intensity due to the membrane-melittin interaction, which results in the release of dye from porous beads was about 10 fold. Although this release was not as high as that observed when using TRITON X-100 detergent, it is notable in comparison to the release with α-toxin.

Assay [3] concerns 90:10 (molar ratio) EPC and DMPG bilayer on porous silica beads. The experiment in a line: Suspension study: melittin on EPC/DMPG 90:10 bilayers on fluorescein-containing porous beads. Type of assay: biochemical. As to conditions: highly concentrated melittin, 25° C. How it is done: as §1
The interaction of highly concentrated melittin solutions was examined with membranes supported on fluorescein containing porous beads, where the membranes contained 100% EPC or a 90:10 mixture (molar ratio) of EPC and DMPG (a negatively charged lipid). […] In the absence of peptide, the amount of dye leakage from the EPC/DMPG beads was similar to that for EPC coated beads.

Assay [4] concerns DMPG lipid bilayer supported on MS-PPE. The experiment in a line: Superquenching flow cytometric assay for disruption of DMPG lipid bilayer supported on MS-PPE. Format: biochemical. As to conditions: for quenching of the MS-PPE after addition of peptide / association constant with DMPG (reciprocal of the point of half saturation): 10 μM AQS; for quenching of the MS-PPE after addition of peptide: sMLT 3.8 μM, nMLT 1.6 μM, TRITON X-100 0.25% (w/v); for association constant with DMPG (reciprocal of the point of half saturation): binding curves, flow cytometry. How it is done: Lipid bilayers were disrupted by adding TRITON X-100 detergent to the bead suspension to a final concentration of 0.25% (w/v).
Bead suspensions of 2.5×10^5 DMPG-coated MS-PPE in 200 μL of PBS were analyzed using a FACScan flow cytometer (Becton-Dickinson, Sunnyvale, Calif.) with excitation at 488 nm. Fluorescence signals were acquired on FL-1 channel (525 nm) using log amplification and analyzed with the CellQuest software. Kinetic analysis of disruption of supported lipid bilayer by melittin was performed by acquiring real-time data with continuous mixing of samples (10^6 MS-PPE in 800 μl of PBS) using a magnetic stirrer. The raw data were analyzed using IDL Query software developed by Bruce Edwards (Cancer Center, University of New Mexico, Albuquerque, N. Mex.).
Because an anionic lipid was used to form a lipid bilayer around MS-PPE, it was expected that MLT will disrupt the DMPG lipid bilayer by such a detergent-like action. This was tested by adding 10 μM AQS to DMPG-coated MS-PPE followed by treatment with one of the following: TRITON X-100 detergent, synthetic MLT (sMLT), or natural MLT (nMLT) and immediately reading the fluorescence by flow cytometry. […] These histograms resemble the ones reported previously for MS-PPE, without a lipid coating, in absence and in presence of AQS.
From FIG. 18, the association constant (corresponding to the reciprocal of the point of half saturation) for nMLT and sMLT with DMPG were 5×10^6 M^−1 and 1.7×10^6 M^−1, respectively. […] Lower concentrations of nMLT, in comparison to sMLT, were required to disrupt the DMPG lipid bilayer. This might be attributed to the fact that nMLT contains some phospholipase A2 (PLA2) as a contaminant. PLA2 has a high affinity for anionic phospholipids, with an association constant of 0.5×10^10 M^−1 (Kim et al., Anal. Chem. 250, 109-116 (1997)), which is about 3000 fold higher than that of MLT. Although PLA2 activity requires calcium, which is not present in the experimental system, it has been reported that even upon addition of EDTA to natural MLT, PLA2 maintains its activity, probably due to formation of a tight complex with calcium with PLA2 (Dempsey, C. E. Biochim. Biophys. Acta 1990, 1031, 143-161).
The kinetics of disruption of supported lipid bilayer by MLT were monitored by measuring real-time changes in fluorescence intensity by flow cytometry (FIG. 19). Suspensions of 10^6 DMPG-coated MS-PPE in 800 μL of PBS were treated with AQS at a final concentration of 10 μM, then with either sMLT, TRITON X-100 detergent, or no treatment. […] Treatment with sMLT in the absence of AQS led to an increase in normalized fluorescence (FIG. 19, trace A). This can be attributed to disruption of the lipid bilayer by sMLT, and is consistent with a reversal of the slight quenching of fluorescence caused by the formation of a DMPG lipid bilayer over MS-PPE. Addition of AQS alone to DMPG-coated MS-PPE (FIG. 19, trace C) led to a 20% reduction in fluorescence as reported earlier. Addition of TRITON X-100 detergent to DMPG-coated MS-PPE after the addition of AQS (first dip in trace E, FIG. 19) caused immediate decrease in fluorescence to ˜10% of its original value (second dip in trace E, FIG. 19). In contrast, addition of sMLT, after the addition of AQS, (FIG. 19, trace D) led to a gradual reduction of fluorescence intensity to ˜20% of the original value. Although MLT forms dimers at high concentrations (Dempsey, C. E. Biochim. Biophys. Acta 1990, 1031, 143-161), it is monomeric at the concentrations used in this study. On the other hand, TRITON X-100 detergent forms micelles at the concentration used in this study.
Background: A flow cytometer gives signals particle by particle.

Assay [5] has as its system EPC lipid bilayer on porous silica beads. The experiment in a line: Suspension study: disruption of EPC bilayers on fluorescein-containing porous silica beads, release of dye into supernatant. Format: biochemical. Conditions: all three concentrations 15, 45 and 250 μg/mL. How it is done:
Lipid coatings on beads were disrupted using 10% TRITON X-100 detergent. Each sample in micro-centrifuge tubes contained 5 mg of lipid bilayer coated, fluorescein entrapped beads in 200 μL of Tris buffer. Samples were centrifuged and 100 μL aliquots of supernatant were mixed with either 100 μL of Tris buffer or 100 μL of 10% TRITON X-100 detergent in separate centrifuge tubes. The fluorescence intensity of each mixture was immediately (time=0) recorded. Each mixture was mixed with its respective bead sample in centrifuge tube and incubated at 25° C. in the dark. After 30 min, samples were centrifuged and fluorescent intensity of the supernatants was measured. Beads were resuspended in their respective supernatants. Fluorescence intensity was again measured at 90 and 150 min.
as §1
Previous suspension studies on disruption of lipid bilayers have been performed with small unilamellar vesicles where disruption of the lipid bilayer membranes was detected by monitoring the unquenching of a highly concentrated, encapsulated dye. In the present work disruption was monitored via release of fluorescein dye from porous beads, by measuring the increase in fluorescence intensity of the supernatant at 520 nm. Beads were first suspended in Tris buffer containing the disruptor. After selected time periods, beads were sedimented by centrifuging and a portion of the supernatant was taken for the measurement. The measured portion was added back to the bead sample to permit continuous monitoring. The scattering effect that was present in vesicle based studies was minimized by measuring only the supernatant after centrifugation of the beads.

The subject of assay [6] is supported lipid bilayer surrounding a porous bead that contains fluorescein. Description: Kinetics of supported lipid bilayer disruption by α-toxin, pH gradient, flow cytometry. Format: biochemical. From the text: FIGS. 4A-B illustrates the effects of alpha-toxin on lipid bilayer integrity. FIG. 4A graphically illustrates dose-dependent release of fluorescent dye from a lipid bilayer coated microbead after introduction of different concentrations of alpha-toxin, a membrane-associated pore-forming protein from Staphylococcus aureus. The normalized fluorescence intensity (at 520 nm) of the supernatant is plotted versus time for EPC-coated, fluorescein filled porous beads when using different concentrations of α-toxin added. 10% Triton was added after 150 min. FIG. 4B illustrates the kinetics of disrupting a supported lipid bilayer by α-toxin as monitored by recording changes in fluorescence intensity every 2 minutes by flow cytometry. The lipid bilayer surrounded a porous bead that contains a pH-reactive molecule (fluorescein), and the pH outside the beads was adjusted to 11.0, whereas inside the beads the pH was 2.6. As illustrated, increasing amounts of c′-toxin increases the fluorescence emitted from within the beads.
In another experiment a lipid bilayer surrounding a porous bead that contains a pH-reactive molecule (fluorescein) was exposed to α-toxin. The pH outside the beads was adjusted to 11.0, whereas inside the beads the pH was 2.6. The kinetics of disruption of supported lipid bilayer by α-toxin were monitored by recording changes in fluorescence intensity every 2 minutes by flow cytometry. For the first 8 minutes there was no significant change in fluorescence intensity (FIG. 4B). However, after 8 minutes there was a gradual increase in fluorescence intensity (FIG. 4B) resulting from insertion of α-toxin into the supported lipid bilayer thus forming channels permeable to hydrogen cations and hydroxyl ions, which reduces the difference in the pH outside and inside the microspheres. […] This can be attributed to insertion of many α-toxin channels at this high concentration leading to disruption of the lipid bilayer and immediate equilibration of the pH inside and outside the porous microspheres.

In the case of `CCCCCCCCCCCCCCCC(=O)OC[C@H](COP(=O)([O-])OCC[N+](C)(C)C)OC(=O)CCCCCCCCCCCCCCC` [DPPC, 1,2-dipalmitoyl-sn-glycero-3-phosphatidylcholine], in assay [1], the “fluorescence with quencher relative to MS-PPE and quencher without the lipid” value is given as approximately 10 fold; the “reduction (quenching) of polymer fluorescence of lipid-coated MS-PPE on addition of AQS” value is approximately 40%.
Take `CC[C@H](C)[C@H](NC(=O)CN)C(=O)NCC(=O)N[C@@H](C)C(=O)N[C@H](C(=O)N[C@@H](CC(C)C)C(=O)N[C@@H](CCCCN)C(=O)N[C@H](C(=O)N[C@@H](CC(C)C)C(=O)N[C@H](C(=O)N[C@H](C(=O)NCC(=O)N[C@@H](CC(C)C)C(=O)N1CCC[C@H]1C(=O)N[C@@H](C)C(=O)N[C@@H](CC(C)C)C(=O)N[C@H](C(=O)N[C@@H](CO)C(=O)N[C@@H](Cc1c[nH]c2ccccc12)C(=O)N[C@H](C(=O)N[C@@H](CCCCN)C(=O)N[C@@H](CCCNC(=N)N)C(=O)N[C@@H](CCCCN)C(=O)N[C@@H](CCCNC(=N)N)C(=O)N[C@@H](CCC(N)=O)C(=O)N[C@@H](CCC(N)=O)C(N)=O)[C@@H](C)CC)[C@@H](C)CC)[C@@H](C)O)[C@@H](C)O)C(C)C)C(C)C` [melittin]: the “increase in fluorescence intensity due to release of dye” value in assay [2] was “about 10 fold”. The “release of dye from EPC/DMPG coated beads compared with 100% EPC coated beads” value in assay [3] was “slightly higher”.
Regarding “nMLT: natural melittin from Sigma, contains some phospholipase A2 as a contaminant”, in assay [4], the “quenching of the MS-PPE after addition of peptide” value is “comparable to that occurring on addition of TRITON X-100 detergent” and the “association constant with DMPG (reciprocal of the point of half saturation)” value worked out at 5e+06 M⁻¹.
Take “sMLT: synthetic melittin obtained from Sigma”: in assay [4], the “quenching of the MS-PPE after addition of peptide” value is “comparable to that occurring on addition of TRITON X-100 detergent” and the “association constant with DMPG (reciprocal of the point of half saturation)” value is 1.7e+06 M⁻¹. Moreover, the “fluorescence intensity after addition, % of original value (real-time kinetics)” value in assay [4] (10^6 DMPG-coated MS-PPE in 800 μL PBS, after 10 μM AQS) is approximately 20%.
For “α-toxin: membrane active pore-forming protein secreted by Staphylococcus aureus, ˜33 kDa”, the figures for the “increase in fluorescence intensity after 150 min” value in assay [5] (25° C.) and in assay [5] (37° C.) were “about 3 fold” and “about 6.5 fold”, respectively. In addition, the “concentration at which increase in fluorescence intensity reached its maximum” value in assay [6] (pH 11.0 outside, pH 2.6 inside beads) came out at 15 µg/mL. Also, the “time without significant change in fluorescence intensity before gradual increase” value in assay [6] (pH 11.0 outside, pH 2.6 inside beads, read every 2 minutes) worked out at 8 min. Besides, in assay [6] (α-toxin 45 μg/mL), the “change in fluorescence intensity” value is “did not cause a change in fluorescence intensity different from the baseline”.
